Reference: patent US9937235B2, “Lipidated peptides as anti-obesity agents” (USTAV ORGANICKE CHEMIE A BIOCHEMIE AKADEMIE VED CR, V.V.I, priority 2012, dated 2018)
One block for each molecule: values may come before it. Where a SMILES comes first, the peptide text is derived from it. Where no end group is shown, it is not given here. [ ]: non-standard residue; d: D form. The star is where a group is joined. Decanoyl = CCCCCCCCCC(=O)*; Nle = CCCC[C@H](N)C(=O)O

Tests used:
[1] = system: fasted C57BL/6 mice; conditions: central administration, Maixnerová et al., 2011; cited from earlier work
[2] = system: fasted C57BL/6 mice; assay: Food intake in fasted mice after SC administration; type: in vivo, mouse; conditions: for Food intake in mice (5 mg/kg SC) % saline-treated group (45 min): fasted C57BL/6 mice; for food intake / % control: SC administration, dose not stated for these substances; for % control: food intake vs saline
In short: (§1)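 Male C57BL/6 mice, food-deprived 17 h, received saline, PrRP or lipidated analogs either SC at 1-10 mg/kg or ICV into the third ventricle at 4 nmol/mouse.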

[3] = target: T1, human PrRP receptor, GPR10 (Homo sapiens, UniProt P49683); assay: Competitive binding to CHO cells with transfected human GPR10; conditions: CHO cells with transfected human GPR10, human ^125I—PrRP31
T1 construct: host or cells: CHO cells
T1 sequence (P49683 1-370): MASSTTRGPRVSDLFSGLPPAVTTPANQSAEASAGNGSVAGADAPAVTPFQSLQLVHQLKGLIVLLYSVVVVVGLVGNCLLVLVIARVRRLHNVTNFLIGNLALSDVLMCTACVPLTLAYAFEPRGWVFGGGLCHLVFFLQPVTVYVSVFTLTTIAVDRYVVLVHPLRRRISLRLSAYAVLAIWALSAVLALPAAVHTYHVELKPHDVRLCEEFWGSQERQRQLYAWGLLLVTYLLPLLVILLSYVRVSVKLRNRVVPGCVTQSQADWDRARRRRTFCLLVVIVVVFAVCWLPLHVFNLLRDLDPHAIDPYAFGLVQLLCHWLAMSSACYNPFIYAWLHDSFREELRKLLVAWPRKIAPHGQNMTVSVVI
Description: Competitive binding experiments were performed according to Motulsky and Neubig (Motulsky, A., et al., “Analyzing radioligand binding data,” Curr Protoc Neurosci, Chapter 7, Unit 7.5, 2002).
CHO cells with transfected human PrRP receptor, GPR10 (Perkin Elmer, USA) were grown on 24-well plates coated with polyethyleneimine. The cells were grown to the optimal density of 40-80 thousand cells per well. The following agents were used for the experiment: binding buffer (25 mmol·l^−1 Tris, pH 7.4; 118 mmol·l^−1 NaCl, 10 mmol·l^−1 MgCl2, 1 mmol·l^−1 CaCl2, 5.5 mmol·l^−1 glucose, 0.5 mg/ml BSA), unlabelled analogs of PrRP of final concentration within 10^−11 to 10^−4 mol·l^−1, and human ^125I—PrRP31 of final concentration of 5×10^−11 mol·l^−1.
Plates were incubated for 60 minutes at room temperature. After incubation, the cells were solubilized in 0.1 mol/l solution of NaOH and the radioactivity bound to the cells was counted using a γ-counter. The experiments were performed in duplicate and repeated at least three times.
For evaluation of competitive binding experiments, the program Graph Pad Prism Software (San Diego, Calif., USA) was used. A method of nonlinear regression assuming one-site binding was used.

[4] = system: rats; conditions: ICV, third brain ventricle, Lawrence et al.; cited from earlier work
[5] = target: T2, rat PrRP receptor (GPR10) in RC-4B/C cells (Rattus norvegicus, UniProt Q64121); assay: Competitive binding to rat pituitary RC-4B/C cells; conditions: ^125I-rat PrRP31, RC-4B/C cells
T2 construct: host or cells: RC-4B/C rat pituitary cell line
T2 sequence (Q64121 1-370): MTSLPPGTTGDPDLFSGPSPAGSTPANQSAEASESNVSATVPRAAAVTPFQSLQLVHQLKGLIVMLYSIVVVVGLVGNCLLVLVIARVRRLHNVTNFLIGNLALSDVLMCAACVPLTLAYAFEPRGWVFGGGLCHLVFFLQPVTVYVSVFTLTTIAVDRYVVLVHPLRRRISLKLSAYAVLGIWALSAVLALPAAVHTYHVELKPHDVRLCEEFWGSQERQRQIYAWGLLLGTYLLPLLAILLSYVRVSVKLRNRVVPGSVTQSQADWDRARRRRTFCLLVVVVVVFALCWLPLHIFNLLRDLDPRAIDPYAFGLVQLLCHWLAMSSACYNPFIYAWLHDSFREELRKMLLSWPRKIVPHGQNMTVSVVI

[6] = system: MAPK/ERK1/2 signaling pathway in RC-4B/C cells; assay: MAPK/ERK1/2 signaling in RC-4B/C cells (Western blot); type: cell-based, rat; conditions: 10^−6 mol·l^−1, 5 minute incubation
[7] = system: fasted C57BL/6 mice; assay: Food intake in fasted mice after ICV administration; type: in vivo; conditions: 4 nmol/mouse; for % control: food intake vs saline
In short: as §1

Molecule: PrRP13: tridecapeptide PrRP13 (containing amino acids 18 to 31 of PrRP31) (AWYASRGIRPVGRF; ends and bridges not checked; UniProt P81277 40-53, looked up, fragment)
- anorexigenic activity in mice [1]: not sufficient for maintaining the anorexigenic activity

- Ki [3]: 1.92 ± 0.43 nM
Molecule: CCCC[C@H](NC(=O)[C@H](CO)NC(=O)[C@H](Cc1c[nH]cn1)NC(=O)[C@H](CCC(N)=O)NC(=O)[C@H](Cc1c[nH]cn1)NC(=O)[C@H](C)NC(=O)[C@H](CCCNC(=N)N)NC(=O)[C@@H](N)CO)C(=O)N[C@@H](CCC(=O)O)C(=O)N[C@H](C(=O)N[C@@H](CCCNC(=N)N)C(=O)N[C@H](C(=O)N1CCC[C@H]1C(=O)N[C@@H](CC(=O)O)C(=O)N[C@H](C(=O)N[C@@H](CC(N)=O)C(=O)N1CCC[C@H]1C(=O)N[C@@H](C)C(=O)N[C@@H](Cc1c[nH]c2ccccc12)C(=O)N[C@@H](Cc1ccc(O)cc1)C(=O)N[C@H](C(=O)NCC(=O)N[C@@H](CCCNC(=N)N)C(=O)NCC(=O)N[C@H](C(=O)N[C@@H](CCCNC(=N)N)C(=O)N1CCC[C@H]1C(=O)N[C@H](C(=O)NCC(=O)N[C@@H](CCCNC(=N)N)C(=O)N[C@@H](Cc1ccccc1)C(N)=O)C(C)C)[C@@H](C)CC)[C@@H](C)O)[C@@H](C)CC)[C@@H](C)O)[C@@H](C)O [Analog 14] (H-SRAHQHS[Nle]ETRTPDINPAWYTGRGIRPVGRF-NH2)
- Food intake in mice (5 mg/kg SC) % saline-treated group (45 min) [2]: 100%

- Ki [3]: 2.41 ± 0.26 nM
Molecule: CCCCCCCCCC(=O)N[C@H](C(=O)N1CCC[C@H]1C(=O)N[C@@H](CC(=O)O)C(=O)N[C@H](C(=O)N[C@@H](CC(N)=O)C(=O)N1CCC[C@H]1C(=O)N[C@@H](C)C(=O)N[C@@H](Cc1c[nH]c2ccccc12)C(=O)N[C@@H](Cc1ccc(O)cc1)C(=O)N[C@@H](C)C(=O)N[C@@H](CO)C(=O)N[C@@H](CCCNC(=N)N)C(=O)NCC(=O)N[C@H](C(=O)N[C@@H](CCCNC(=N)N)C(=O)N1CCC[C@H]1C(=O)N[C@H](C(=O)NCC(=O)N[C@@H](CCCNC(=N)N)C(=O)N[C@@H](Cc1ccccc1)C(N)=O)C(C)C)[C@@H](C)CC)[C@@H](C)CC)[C@@H](C)O [Analog 53] (Decanoyl-TPDINPAWYASRGIRPVGRF-NH2)
- Food intake in mice (5 mg/kg SC) % saline-treated group (45 min) [2]: 100%

Molecule: SRAHQHSMETRTPDINPAWYTGRGIRPVGRF-NH2 [PrRP31, reference compound]
- food intake in rats [4]: significant lowering of food intake
- % of PrRP31 binding [5]: 100%
- ERK signaling [6]: agonist
- food intake ([7]; 45 minutes): 0.42 g
- % control ([7]; 45 minutes): 75%
- food intake ([7]; 300 minutes): 1.37 g
- % control ([7]; 300 minutes): 104%
- food intake ([2]; 45 minutes): 0.32 g
- % control ([2]; 45 minutes): 100%
- food intake ([2]; 300 minutes): 1.15 g
- % control ([2]; 300 minutes): 105%
